Test results: article PMC3598492, “Cannabinoid receptor type 2 (CB2)-selective N-aryl-oxadiazolyl-propionamides: synthesis, radiolabelling, molecular modelling and biological evaluation” (Organic and Medicinal Chemistry Letters, 2012)
Read-outs that look alike come from different tables or passages of the source.

Target: T1, hCB2 (Homo sapiens, UniProt P34972)
T1 construct: host or cells: CHO (hCB2-CHO), crude membrane homogenates
Assay: Competitive [3H]CP55,940 binding on membrane homogenates of hCB2-CHO cells
Settings: for Binding to hCB2 in words: hCB2-CHO
Experimental: CHO cell lines stably transfected with human CB1 (hCB1-CHO; obtained from Euroscreen, Gosselies, Belgium) or human CB2 (hCB2-CHO; obtained from Paul L. Prather, Department of Pharmacology and Toxicology, College of Medicine, University of Arkansas for Medical Sciences, USA) were cultured in Ham's F12 medium or Dulbecco's modified Eagle's medium (DMEM) with 10% fetal calf serum, 100 IU/mL penicillin, 100 μg/mL streptomycin and 250 or 400 μg/mL of the selection antibiotic Geneticin (G418), respectively. The cells were cultured in a humidified atmosphere with 5% CO2 at 37°C. Confluent cell layers of 175-cm^2 flasks were scraped; cells were harvested by centrifugation (800 rpm, 3 min), counted by trypan blue staining, suspended in 200 μL of 50 mM tris(hydroxymethyl)aminomethane (TRIS; pH 7.4) at 4°C and stored at −32°C until the binding experiment.
Competitive binding experiments were performed with crude membrane homogenates obtained from hCB1-CHO or hCB2-CHO cells as described above. […] Incubations were terminated by rapid filtration through a GF-B glass fibre filter pre-incubated for 90 min at room temperature in freshly prepared 0.5% polyvinylpyrrolidone + 0.1% Tween 20 solution using a 48-well cell harvester (Brandel, Gaithersburg, MD, USA).
The corresponding inhibition constants (Ki) of test compounds were derived from the IC50 values using the Cheng-Prusoff equation [49]. All binding experiments were performed in triplicates, and data are given as mean values from independent experiments.

[1] = read-out: Affinity (Ki) towards hCB2

T1 sequence (P34972 whole entry): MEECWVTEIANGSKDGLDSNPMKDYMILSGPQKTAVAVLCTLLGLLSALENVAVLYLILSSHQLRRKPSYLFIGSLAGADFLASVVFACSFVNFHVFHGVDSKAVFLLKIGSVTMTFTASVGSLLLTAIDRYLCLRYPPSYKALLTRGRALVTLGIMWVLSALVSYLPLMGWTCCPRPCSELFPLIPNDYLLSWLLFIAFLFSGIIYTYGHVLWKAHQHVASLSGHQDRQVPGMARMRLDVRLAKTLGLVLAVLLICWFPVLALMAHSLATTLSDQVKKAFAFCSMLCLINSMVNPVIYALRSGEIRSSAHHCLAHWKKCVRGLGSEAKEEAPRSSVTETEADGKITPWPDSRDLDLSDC

Row | SMILES | Binding to hCB2 in words | Ki [1] [nM] | Ki [nM] | Ki (hCB2 expressed in CHO cells, 0.5 nM [3H]CP55,940, Cheng-Prusoff, read-out: Affinity (Ki) towards hCB2) [nM]
1 | CCn1c2ccccc2c2cc(NC(=O)CCc3nc(-c4ccc(Br)nc4)no3)ccc21 [Compound 6c, 3-(3-(6-Bromopyridin-3-yl)-1,2,4-oxadiazol-5-yl)-N-(9-ethyl-9H-carbazol-3-yl)propanamide] | low affinity | 1920 | – | –
2 | CCn1c2ccccc2c2cc(NC(=O)CCc3nc(-c4ccc(F)cc4OCCF)no3)ccc21 [Compound 6k, 3-(3-(4-Fluoro-2-(2-fluoroethoxy)phenyl)-1,2,4-oxadiazol-5-yl)-N-(9-ethyl-9H-carbazol-3-yl)-propanamide] | – | 3190 | – | –
3 | Cn1c2ccccc2c2cc(NC(=O)CCc3nc(-c4ccc(F)cc4Br)no3)ccc21 [Compound 5e, 3-(3-(2-Bromo-4-fluorophenyl)-1,2,4-oxadiazol-5-yl)-N-(9-methyl-9H-carbazol-3-yl)propanamide] | – | 250 | – | –
4 | CCn1c2ccccc2c2cc(NC(=O)CCc3nc(-c4ccc(OC)cc4Br)no3)ccc21 [Compound 6m, 3-(3-(2-Bromo-4-methoxyphenyl)-1,2,4-oxadiazol-5-yl)-N-(9-ethyl-9H-carbazol-3-yl)propanamide] | – | > 100000 | – | –
5 | CCn1c2ccccc2c2cc(NC(=O)CCc3nc(-c4ccc(F)cc4OC)no3)ccc21 [Compound 6l, 3-(3-(4-Fluoro-2-methoxyphenyl)-1,2,4-oxadiazol-5-yl)-N-(9-ethyl-9H-carbazol-3-yl)-propanamide] | – | 223 | – | –
6 | CCn1c2ccccc2c2cc(NC(=O)CCc3nc(-c4ccc([N+](=O)[O-])cc4C#N)no3)ccc21 [Compound 6f, 3-(3-(2-Cyano-4-nitrophenyl)-1,2,4-oxadiazol-5-yl)-N-(9-ethyl-9H-carbazol-3-yl)propanamide] | – | – | 5.89 | –
7 | CCn1c2ccccc2c2cc(NC(=O)CCc3nc(-c4ccc(N)cc4F)no3)ccc21 [Compound 6i, 3-(3-(4-Amino-2-fluorophenyl)-1,2,4-oxadiazol-5-yl)-N-(9-ethyl-9H-carbazol-3-yl)propanamide] | – | > 100000 | – | –
8 | CC(C)(C)c1cc(NC(=O)CCc2nc(-c3ccc(Br)nc3)no2)no1 [Compound 1a, 3-(3-(6-Bromopyridin-3-yl)-1,2,4-oxadiazol-5-yl)-N-(5-tert-butylisoxazol-3-yl)propanamide] | high affinity | 14.4 | – | –
9 | O=C(CCc1nc(-c2ccc(F)cc2Br)no1)Nc1ccc2[nH]c3ccccc3c2c1 [Compound 4e, 3-(3-(2-Bromo-4-fluorophenyl)-1,2,4-oxadiazol-5-yl)-N-(9H-carbazol-3-yl)propanamide] | no binding | > 100000 | – | –
10 | CCn1ccc2cc(NC(=O)CCc3nc(-c4ccc(F)nc4)no3)ccc21 [Compound 3b, 3-(3-(6-Fluoropyridin-3-yl)-1,2,4-oxadiazol-5-yl)-N-(1-ethyl-1H-indol-5-yl)-propanamide] | low affinity | > 100000 | – | –
11 | CC(C)(C)c1cc(NC(=O)CCc2nc(-c3ccc(F)nc3)no2)no1 [Compound 1b, 3-(3-(6-Fluoropyridin-3-yl)-1,2,4-oxadiazol-5-yl)-N-(5-tert-butylisoxazol-3-yl)propanamide] | low affinity | – | – | > 100000
12 | CCn1c2ccccc2c2cc(NC(=O)CCc3nc(-c4ccc(F)cc4O)no3)ccc21 [Compound 6j, 3-(3-(4-Fluoro-2-hydroxyphenyl)-1,2,4-oxadiazol-5-yl)-N-(9-ethyl-9H-carbazol-3-yl)propanamide] | – | 5710 | – | –
